Source: patent US20240008524A1, “CONSUMABLE” (Nicoventures Trading Limited, priority 2020, published 2024)
Converted amounts (≈) assume the structure as drawn.

Assay: Water solubility of flavoring agents and their flavor glucosides
Settings: not given

In the case of `COc1cc(CO)ccc1O[C@@H]1O[C@H](CO)[C@@H](O)[C@H](O)[C@H]1O` [Vanillin-Alcohol glucoside, 3-methoxy-benzyl alcohol-4-O-β-D-glucopyranoside], the “increase of water solubility (glucoside vs flavoring agent)” value was 32 ×.

For `Cc1ccc(C(C)C)cc1O` [Carvacrol], the “Flavoring Agent water solubility” value was 1.25 mg/mL.

Same assay, conditions: flavoring agent in the form of its flavor glucoside; water

In order of rising “Glucoside water solubility” value:
1. CC(C)=CCCC(C)=CCCC(C)=CCO[C@@H]1O[C@H](CO)[C@@H](O)[C@H](O)[C@H]1O [Farnesol glucoside, 3,7,11-trimethyl-2,6,10-dodecatrien-1-yl-O-β-D-glucopyranoside]  1 mg/mL
2. CC12CCC(C1)C(C)(C)C2O[C@@H]1O[C@H](CO)[C@@H](O)[C@H](O)[C@H]1O (stereo partly drawn) [Fenchol glucoside, 1,3,3-trimethyl-bicyclo[2.2.1]heptan-2-yl-O-β-D-glucopyranoside]  4 mg/mL
3. C=CCc1ccc(O[C@@H]2O[C@H](CO)[C@@H](O)[C@H](O)[C@H]2O)c(OC)c1 [Eugenol glucoside, 2-methoxy-4-(2-propen-1-yl)phenyl-O-β-D-glucopyranoside]  15.1 mg/mL
4. CC(C)=CCC/C(C)=C\CO[C@@H]1O[C@H](CO)[C@@H](O)[C@H](O)[C@H]1O [Nerol glucoside, (2Z)-3,7-dimethyl-2,6-octadien-1-yl-O-β-D-glucopyranoside]  16.6 mg/mL
5. COC(=O)c1ccccc1N[C@@H]1O[C@H](CO)[C@@H](O)[C@H](O)[C@H]1O [Methylanthranilate glucoside, methyl-2-aminobenzoate-N-β-D-glucopyranoside]  35 mg/mL
6. COc1cc(CO)ccc1O[C@@H]1O[C@H](CO)[C@@H](O)[C@H](O)[C@H]1O [Vanillin-Alcohol glucoside, 3-methoxy-benzyl alcohol-4-O-β-D-glucopyranoside]  62 mg/mL
7. (S)-2-(4-methyl-3-cyclohexenyl)-2-propanyl-O-β-D-glucopyranoside [Alpha-Terpineol glucoside]  172 mg/mL
8. C=CC(CCCCC)O[C@@H]1O[C@H](CO)[C@@H](O)[C@H](O)[C@H]1O (stereo partly drawn) [1-Octen-3-ol glucoside, 1-octen-3-yl-O-β-D-glucopyranoside]  200 mg/mL
9. C=C(C)C1CC=C(CO[C@@H]2O[C@H](CO)[C@@H](O)[C@H](O)[C@H]2O)CC1 (stereo partly drawn) [Perillyl alcohol glucoside, p-mentha-1,8-dien-7-yl-O-β-D-glucopyranoside]  485 mg/mL
10. CC1=C(O[C@@H]2O[C@H](CO)[C@@H](O)[C@H](O)[C@H]2O)C(=O)OC1C (stereo partly drawn) [Sotolon glucoside, 4,5-dimethylfuran-2(5H)-one-3-O-β-D-glucopyranoside]  502 mg/mL
11. CC(C)=CCCC(C)CCO[C@@H]1O[C@H](CO)[C@@H](O)[C@H](O)[C@H]1O (stereo partly drawn) [Citronellol glucoside, 3,7-dimethyl-6-octen-1-yl-O-β-D-glucopyranoside]  519 mg/mL
12. CC1(C)C2CC=C(CO[C@@H]3O[C@H](CO)[C@@H](O)[C@H](O)[C@H]3O)C1C2 (stereo partly drawn) [Myrtenol glucoside, 6,6-dimethylbicyclo(3.1.1)hept-2-ene-2-methyl-O-β-D-glucopyranoside]  525 mg/mL
13. Cc1occc(=O)c1O[C@@H]1O[C@H](CO)[C@@H](O)[C@H](O)[C@H]1O [Maltol glucoside, 2-methyl-4H-pyran-4-one-3-O-β-D-glucopyranoside]  535 mg/mL
14. C=CC(C)(CCC=C(C)C)O[C@@H]1O[C@H](CO)[C@@H](O)[C@H](O)[C@H]1O (stereo partly drawn) [Linalool glucoside, 1-ethenyl-1,5-dimethyl-4-hexen-1-yl-O-β-D-glucopyranoside]  564 mg/mL
15. CC/C=C\CCO[C@@H]1O[C@H](CO)[C@@H](O)[C@H](O)[C@H]1O [cis-3-Hexen-1-ol glucoside, (3Z)-3-hexen-1-yl-O-β-D-glucopyranoside]  598 mg/mL
16. CC(C)=CCC/C(C)=C/CO[C@@H]1O[C@H](CO)[C@@H](O)[C@H](O)[C@H]1O [Geraniol glucoside, (2E)-3,7-dimethyl-2,6-octadien-1-yl-O-β-D-glucopyranoside]  627 mg/mL
17. CCc1occc(=O)c1O[C@@H]1O[C@H](CO)[C@@H](O)[C@H](O)[C@H]1O [Ethylmaltol glucoside, 2-ethyl-4H-pyran-4-one-3-O-β-D-glucopyranoside]  662 mg/mL
18. CCCCCCO[C@@H]1O[C@H](CO)[C@@H](O)[C@H](O)[C@H]1O [1-Hexanol glucoside, hex-1-yl-O-β-D-glucopyranoside]  676 mg/mL
19. CC1=C(O[C@@H]2O[C@H](CO)[C@@H](O)[C@H](O)[C@H]2O)C(=O)C(C)O1 (stereo partly drawn) [Furaneol glucoside, 2,5-dimethyl-3(2H)-furanone-4-O-β-D-glucopyranoside]  731 mg/mL
20. (2/5)-ethyl-5 (or 2)-methyl-3(2H)-furanone-4-O-β-D-glucopyranoside [Homofuraneol glucoside]  749 mg/mL
21. CCC1OC(=O)C(O[C@@H]2O[C@H](CO)[C@@H](O)[C@H](O)[C@H]2O)=C1C (stereo partly drawn) [Maple furanone glucoside, 5-ethyl-3-hydroxy-4-methyl-2(5H)-furanone-3-O-β-D-glucopyranoside]  772 mg/mL
22. OC[C@H]1O[C@@H](OCCc2ccccc2)[C@H](O)[C@@H](O)[C@@H]1O [2-Phenylethanol glucoside, 2-phenyleth-1-yl-O-β-D-glucopyranoside]  833 mg/mL

Same assay, conditions: free flavoring agent, not bound to sugar; water

In order of rising “Flavoring Agent water solubility” value:
1. CC1(C)C2CC=C(CO)C1C2 (centres unmarked) [Myrtenol]  0.261 mg/mL
2. COc1cc(CO)ccc1O [Vanillin-Alcohol]  2 mg/mL
3. CCC1OC(C)=C(O)C1=O (centres unmarked) [Homofuraneol]  6.178 mg/mL
4. Oc1ccc2c(c1)OCO2 [Sesamol]  14.65 mg/mL
5. OCCc1ccccc1 [2-Phenylethanol]  21.99 mg/mL
6. CC1=C(O)C(=O)OC1C (centres unmarked) [Sotolon]  22.28 mg/mL
7. CCc1occc(=O)c1O [Ethylmaltol]  24.23 mg/mL
8. CCC1OC(=O)C(O)=C1C (centres unmarked) [Maple furanone]  74.39 mg/mL

Same assay, conditions: free flavoring agent; at 25° C.

In the case of `COc1cc(CO)ccc1O` [Vanillin-Alcohol], the water solubility was “approximately 2 g/I”.

Same assay, conditions: water

In order of rising solubility:
1. CC(C)=CCCC(C)=CCCC(C)=CCO [Farnesol]  0.00129 mg/mL (≈ 0.0058 mM)
2. CC(C)=CCC/C(C)=C/CO [Geraniol]  0.1 mg/mL (≈ 0.648 mM)
3. CC(C)=CCCC(C)CCO (centres unmarked) [Citronellol]  0.106 mg/mL (≈ 0.678 mM)
4. CC(C)=CCC/C(C)=C\CO [Nerol]  0.256 mg/mL (≈ 1.66 mM)
5. CC12CCC(C1)C(C)(C)C2O (centres unmarked) [Fenchol]  0.461 mg/mL (≈ 2.99 mM)
6. C=C(C)[C@@H]1CC=C(CO)CC1 [Perillyl alcohol]  0.471 mg/mL (≈ 3.09 mM)
7. CC1CCC(C(C)C)C(O)C1 (centres unmarked) [Menthol]  0.49 mg/mL (≈ 3.14 mM)
8. C=CC(C)(O)CCC=C(C)C (centres unmarked) [Linalool]  0.68 mg/mL (≈ 4.41 mM)
9. CC1=CCC(C(C)(C)O)CC1 (stereo not drawn) [Alpha-Terpineol]  0.71 mg/mL (≈ 4.6 mM)
10. C=CC(O)CCCCC (centres unmarked) [1-Octen-3-ol]  1.84 mg/mL (≈ 14.3 mM)
11. C=CCc1ccc(O)c(OC)c1 [Eugenol]  2.46 mg/mL (≈ 15 mM)
12. Cc1occc(=O)c1O [Maltol]  10.9 mg/mL (≈ 86.4 mM)
13. CC/C=C\CCO [cis-3-Hexen-1-ol]  16 mg/mL (≈ 160 mM)
14. CC1=C(O)C(=O)C(C)O1 (centres unmarked) [Furaneol]  18.5 mg/mL (≈ 144 mM)
